Source: ChEMBL document CHEMBL4118261, “Synthesis, iron binding and antimicrobial properties of hexadentate 3-hydroxypyridinones-terminated dendrimers” (2018)
Activity calls are given as the source filed them. No cut-off for these calls is given here.

Columns and labels:
[1] = Binding affinity to Fe3+ at 1:9 compound to ferric ion molar ratio measured after 4 hrs at pH 8.2 to 8.4 measured at 460 nm by UV/Vis spectrophotometry
[2] = Iron chelating activity assessed as pFe3+ by measuring fluorescence intensity of the iron-CP691 complex at 0.67 uM after 1 month incubation in absence of light using CP691 as fluorescent probe by fluorescence assay relative to CP691 alone
Escherichia coli = assay: Antibacterial activity against Escherichia coli CGMCC 1.0907 assessed as growth inhibition at 100 ug/ml after 24 hrs; assay type: functional; settings: for inhibition of growth at 100 µg/mL: CGMCC 1.0907, 24 h, read-out: GI
Pseudomonas aeruginosa = assay: Antibacterial activity against Pseudomonas aeruginosa CGMCC 1.2342 assessed as growth inhibition at 100 ug/ml after 24 hrs; assay type: functional; settings: for inhibition of growth at 100 µg/mL: CGMCC 1.2342, 24 h, read-out: GI
Staphylococcus aureus = assay: Antibacterial activity against Staphylococcus aureus CGMCC 1.0089 assessed as growth inhibition at 100 ug/ml after 24 hrs; assay type: functional; settings: for inhibition of growth at 100 µg/mL: CGMCC 1.0089, 24 h, read-out: GI
Bacillus subtilis = assay: Antibacterial activity against Bacillus subtilis CGMCC 1.0108 assessed as growth inhibition at 100 ug/ml after 24 hrs; assay type: functional; settings: for inhibition of growth at 100 µg/mL: CGMCC 1.0108, 24 h, read-out: GI
[3] = Binding affinity to Fe3+ at 1:9 compound to ferric ion molar ratio by HR-ESI MS analysis
[4] = Metal chelating activity assessed as formation of [Fe3L+H+Na]2+-compound complex at 1:3 compound to ferric ion molar ratio by HR-ESI MS analysis
[5] = Metal chelating activity assessed as formation of [Fe3L+H+2Na]3+-compound complex at 1:3 compound to ferric ion molar ratio by HR-ESI MS analysis
[6] = Binding affinity to Fe3+ at 1:2 compound to ferric ion molar ratio by HR-ESI MS analysis
[7] = Binding affinity to Fe3+ at 1:1 compound to ferric ion molar ratio by HR-ESI MS analysis
[8] = Iron chelating activity assessed as pFe3+ by measuring fluorescence intensity of the iron-CP691 complex at 2 uM after 1 month incubation in absence of light using CP691 as fluorescent probe by fluorescence assay relative to CP691 alone
[9] = Binding affinity to Fe3+ at 1:3 compound to ferric ion molar ratio measured after 4 hrs at pH 8.2 to 8.4 measured at 460 nm by UV/Vis spectrophotometry
[10] = Binding affinity to Fe3+ at 1:6 compound to ferric ion molar ratio measured after 4 hrs at pH 8.2 to 8.4 measured at 460 nm by UV/Vis spectrophotometry
[11] = Iron chelating activity assessed as pFe3+ by measuring fluorescence intensity of the iron-CP691 complex at 1 uM after 1 month incubation in absence of light using CP691 as fluorescent probe by fluorescence assay relative to CP691 alone
[12] = Binding affinity to Fe3+ at 1:6 compound to ferric ion molar ratio by HR-ESI MS analysis

Row | SMILES | Activity [1] | log(activity) [2] | growth inhibition (GI) (Escherichia coli) | growth inhibition (GI) (Pseudomonas aeruginosa) | growth inhibition (GI) (Staphylococcus aureus) | growth inhibition (GI) (Bacillus subtilis) | Activity [3] | Activity [4] | Activity [5] | Activity [6] | Activity [7] | log(activity) [8] | inhibition of growth at 100 µg/mL (Escherichia coli) | inhibition of growth at 100 µg/mL (Pseudomonas aeruginosa) | inhibition of growth at 100 µg/mL (Staphylococcus aureus) | inhibition of growth at 100 µg/mL (Bacillus subtilis) | Activity [9] | Activity [10] | log(activity) [11] | Activity [12]
1 | CCCCn1ccc(=O)c(CNC(=O)CCC(CCC(=O)NCc2c(O)c(=O)ccn2CCCC)(CCC(=O)NCc2c(O)c(=O)ccn2CCCC)NC(=O)CCNC(=O)CCC(CCC(=O)NCCC(=O)NC(CCC(=O)NCc2c(O)n(CCCC)ccc2=O)(CCC(=O)NCc2c(O)c(=O)ccn2CCCC)CCC(=O)NCc2c(O)c(=O)ccn2CCCC)(CCC(=O)NCCC(=O)NC(CCC(=O)NCc2c(O)n(CCCC)ccc2=O)(CCC(=O)NCc2c(O)c(=O)ccn2CCCC)CCC(=O)NCc2c(O)c(=O)ccn2CCCC)NC(=O)CCNC(=O)CCNC(=O)c2cc(C(=O)NCCC(=O)NCCC(=O)NC(CCC(=O)NCCC(=O)NC(CCC(=O)NCc3c(O)n(CCCC)ccc3=O)(CCC(=O)NCc3c(O)c(=O)ccn3CCCC)CCC(=O)NCc3c(O)c(=O)ccn3CCCC)(CCC(=O)NCCC(=O)NC(CCC(=O)NCc3c(O)n(CCCC)ccc3=O)(CCC(=O)NCc3c(O)c(=O)ccn3CCCC)CCC(=O)NCc3c(O)c(=O)ccn3CCCC)CCC(=O)NCCC(=O)NC(CCC(=O)NCc3c(O)n(CCCC)ccc3=O)(CCC(=O)NCc3c(O)c(=O)ccn3CCCC)CCC(=O)NCc3c(O)c(=O)ccn3CCCC)cc(C(=O)NCCC(=O)NCCC(=O)NC(CCC(=O)NCCC(=O)NC(CCC(=O)NCc3c(O)n(CCCC)ccc3=O)(CCC(=O)NCc3c(O)c(=O)ccn3CCCC)CCC(=O)NCc3c(O)c(=O)ccn3CCCC)(CCC(=O)NCCC(=O)NC(CCC(=O)NCc3c(O)n(CCCC)ccc3=O)(CCC(=O)NCc3c(O)c(=O)ccn3CCCC)CCC(=O)NCc3c(O)c(=O)ccn3CCCC)CCC(=O)NCCC(=O)NC(CCC(=O)NCc3c(O)n(CCCC)ccc3=O)(CCC(=O)NCc3c(O)c(=O)ccn3CCCC)CCC(=O)NCc3c(O)c(=O)ccn3CCCC)c2)c1O | Active | 29.8 | 81.2% | 69.9% | 64.5% | 64.1% | inactive |  |  |  |  |  |  |  |  |  |  |  |  | 
2 | O=C(CCC(CCC(=O)NCc1c(O)c(=O)ccn1CCO)(CCC(=O)NCc1c(O)c(=O)ccn1CCO)NC(=O)CCNC(=O)CN(CC(=O)NCCC(=O)NC(CCC(=O)NCc1c(O)c(=O)ccn1CCO)(CCC(=O)NCc1c(O)c(=O)ccn1CCO)CCC(=O)NCc1c(O)c(=O)ccn1CCO)CC(=O)NCCC(=O)NC(CCC(=O)NCc1c(O)c(=O)ccn1CCO)(CCC(=O)NCc1c(O)c(=O)ccn1CCO)CCC(=O)NCc1c(O)c(=O)ccn1CCO)NCc1c(O)c(=O)ccn1CCO |  |  | 99.7% | 85.3% | 81.7% | 95% |  | Active | Active | inactive | inactive | 30 |  |  |  |  |  |  |  | 
3 | Cc1c(O)c(=O)ccn1C [DEFERIPRONE] |  |  |  |  |  |  |  |  |  |  |  |  | 89.1% | 79.5% | 74.8% | 77.4% |  |  |  | 
4 | CCCCn1ccc(=O)c(O)c1CNC(=O)CCC(CCC(=O)NCc1c(O)c(=O)ccn1CCCC)(CCC(=O)NCc1c(O)c(=O)ccn1CCCC)NC(=O)CCNC(=O)CN(CC(=O)NCCC(=O)NC(CCC(=O)NCc1c(O)c(=O)ccn1CCCC)(CCC(=O)NCc1c(O)c(=O)ccn1CCCC)CCC(=O)NCc1c(O)c(=O)ccn1CCCC)CC(=O)NCCC(=O)NC(CCC(=O)NCc1c(O)c(=O)ccn1CCCC)(CCC(=O)NCc1c(O)c(=O)ccn1CCCC)CCC(=O)NCc1c(O)c(=O)ccn1CCCC |  |  |  |  |  |  |  | Active | Active | inactive | inactive | 30.3 | 71.7% | 90.4% | 90% | 84.8% | Active |  |  | 
5 | CCCCn1ccc(=O)c(CNC(=O)CCC(CCC(=O)NCc2c(O)c(=O)ccn2CCCC)(CCC(=O)NCc2c(O)c(=O)ccn2CCCC)NC(=O)CCNC(=O)CCC(CCC(=O)NCCC(=O)NC(CCC(=O)NCc2c(O)n(CCCC)ccc2=O)(CCC(=O)NCc2c(O)c(=O)ccn2CCCC)CCC(=O)NCc2c(O)c(=O)ccn2CCCC)(CCC(=O)NCCC(=O)NC(CCC(=O)NCc2c(O)n(CCCC)ccc2=O)(CCC(=O)NCc2c(O)c(=O)ccn2CCCC)CCC(=O)NCc2c(O)c(=O)ccn2CCCC)NC(=O)CCNC(=O)CCNC(=O)c2ccc(C(=O)NCCC(=O)NCCC(=O)NC(CCC(=O)NCCC(=O)NC(CCC(=O)NCc3c(O)n(CCCC)ccc3=O)(CCC(=O)NCc3c(O)c(=O)ccn3CCCC)CCC(=O)NCc3c(O)c(=O)ccn3CCCC)(CCC(=O)NCCC(=O)NC(CCC(=O)NCc3c(O)n(CCCC)ccc3=O)(CCC(=O)NCc3c(O)c(=O)ccn3CCCC)CCC(=O)NCc3c(O)c(=O)ccn3CCCC)CCC(=O)NCCC(=O)NC(CCC(=O)NCc3c(O)n(CCCC)ccc3=O)(CCC(=O)NCc3c(O)c(=O)ccn3CCCC)CCC(=O)NCc3c(O)c(=O)ccn3CCCC)cc2)c1O |  |  |  |  |  |  |  |  |  |  |  |  | 79.8% | 87.9% | 86.9% | 81.4% |  | Active | 30.3 | inactive
